Measured values from publication PMC7106896, “Synthesis and biological evaluation of 2-(4-methylsulfonyl phenyl) indole derivatives: multi-target compounds with dual antimicrobial and anti-inflammatory activities” (BMC Chemistry, 2020).
≈ marks a conversion by molar mass, not a printed value. Where “and” joins values, the source holds several entries; their conditions need not be identical. Identical values can stand only once.

Experiments:
[1] = test system: C. neoformans var. grubii; assay: Minimal inhibitory concentration measurement; format: cell-based; details: Cryptococcus neoformans; read-out: MIC Cn (C. neoformans var. grubii)
C. albicans = assay: Minimal inhibitory concentration measurement; format: cell-based; details: Candida albicans; read-out: MIC Ca (C. albicans)
MRSA = assay: Minimal inhibitory concentration measurement; format: cell-based; details: Staphylococcus aureus, read-out: MIC Sa (MRSA)
A. baumannii = assay: Minimal inhibitory concentration measurement; format: cell-based; details: Acinetobacter baumannii; read-out: MIC Ab (A. baumannii)
E. coli = assay: Minimal inhibitory concentration measurement; format: cell-based; details: Escherichia coli; read-out: MIC Ec (E. coli)
P. aeruginosa = assay: Minimal inhibitory concentration measurement; format: cell-based; details: Pseudomonas aeruginosa; read-out: MIC Pa (P. aeruginosa)
[2] = Cytotoxicity against human embryonic kidney cell line; format: cell-based; details: read-out: CC50 (concentration at 50% cytotoxicity)
Protocol: (§1) The safety margin for the active compounds to human cells was determined through cytotoxicity against human embryonic kidney cell line and hemolysis of human red blood cells. The tested compounds 7a, 7g, and 7i were tolerated and non-toxic to human cells as the cytotoxic and hemolytic dose was higher than the therapeutic dose (Table 2).

human recombinant COX-2 = assay: In vitro COX inhibition colorimetric assay; format: biochemical; details: COX-1 IC50/COX-2 IC50
[3] = test system: MRSA bacteria and E. coli, K. pneumoniae, P. aeruginosa, and A. baumannii; assay: Antibacterial screening, result pooled over the five bacteria; format: cell-based; details: read-out: growth inhibition, range over MRSA, E. coli, K. pneumoniae, P. aeruginosa and A. baumannii
Protocol: (§2) The antimicrobial study was performed by CO-ADD (The Community for Antimicrobial Drug Discovery), funded by the Wellcome Trust (UK) and The University of Queensland (Australia). Evaluation of all synthesized compounds for their antimicrobial activities was done against five pathogenic bacteria, methicillin-resistant Staphylococcus aureus (ATCC 43300) as Gram-positive bacteria, Escherichia coli (ATCC 25922), Klebsiella pneumonia (ATCC 700603), Acinetobacter baumannii (ATCC 19606) and Pseudomonas aeruginosa (ATCC 27853) as Gram-negative bacteria and antifungal activity against two pathogenic fungal strains Candida albicans (ATCC 90028) and Cryptococcus neoformans var. grubii (H99; ATCC 208821) (Table 1).

[4] = test system: Candida albicans (ATCC 90028); assay: Antifungal screening (CO-ADD), growth inhibition at single concentration; format: cell-based; details: ATCC90028, at 32 µg/mL concentration, read-out: growth inhibition % Ca (C. albicans)
Protocol: as §2

[5] = test system: carrageenan-induced rat paw edema; assay: Carrageenan-induced rat paw edema assay; format: in vivo; details: for Edema thickness (mm) ± SEM: n = 4
Protocol: Pretreatment of rats with compounds 7a–k, 8a–c, and 9a–c before injection with carrageenan in rat paw which induces inflammation and then the percentage of paw edema reduction was measured after certain hours according to previously reported procedures.

[6] = test system: Acinetobacter baumannii (ATCC 19606); assay: Antimicrobial screening (CO-ADD), growth inhibition at single concentration; format: cell-based; details: ATCC19606, at 32 µg/mL concentration, read-out: growth inhibition % Ab (A. baumannii)
Protocol: as §2

[7] = test system: Pseudomonas aeruginosa (ATCC 27853); assay: as above; format: cell-based; details: ATCC27853, at 32 µg/mL concentration, read-out: growth inhibition % Pa (P. aeruginosa)
Protocol: as §2

[8] = test system: methicillin-resistant Staphylococcus aureus (ATCC 43300); assay: as above; format: cell-based; details: ATCC 43300 / MRSA, at 32 µg/mL concentration, read-out: growth inhibition % Sa (MRSA)
Protocol: as §2

[9] = test system: Klebsiella pneumonia (ATCC 700603); assay: as above; format: cell-based; details: Klebsiella pneumoniae, ATCC700603; at 32 µg/mL concentration; read-out: growth inhibition % Kp (K. pneumoniae)
Protocol: as §2

[10] = test system: Escherichia coli (ATCC 25922); assay: as above; format: cell-based; details: ATCC25922, at 32 µg/mL concentration, read-out: growth inhibition % Ec (E. coli)
Protocol: as §2

Ovine COX-1 = target: T1, Ovine COX-1 (Ovis aries, UniProt P05979); assay: In vitro COX inhibition colorimetric assay; format: biochemical
T1 construct: purchased Cayman Chemical, Ann Arbor, MI, USA 760111
T1 sequence (P05979 25-600): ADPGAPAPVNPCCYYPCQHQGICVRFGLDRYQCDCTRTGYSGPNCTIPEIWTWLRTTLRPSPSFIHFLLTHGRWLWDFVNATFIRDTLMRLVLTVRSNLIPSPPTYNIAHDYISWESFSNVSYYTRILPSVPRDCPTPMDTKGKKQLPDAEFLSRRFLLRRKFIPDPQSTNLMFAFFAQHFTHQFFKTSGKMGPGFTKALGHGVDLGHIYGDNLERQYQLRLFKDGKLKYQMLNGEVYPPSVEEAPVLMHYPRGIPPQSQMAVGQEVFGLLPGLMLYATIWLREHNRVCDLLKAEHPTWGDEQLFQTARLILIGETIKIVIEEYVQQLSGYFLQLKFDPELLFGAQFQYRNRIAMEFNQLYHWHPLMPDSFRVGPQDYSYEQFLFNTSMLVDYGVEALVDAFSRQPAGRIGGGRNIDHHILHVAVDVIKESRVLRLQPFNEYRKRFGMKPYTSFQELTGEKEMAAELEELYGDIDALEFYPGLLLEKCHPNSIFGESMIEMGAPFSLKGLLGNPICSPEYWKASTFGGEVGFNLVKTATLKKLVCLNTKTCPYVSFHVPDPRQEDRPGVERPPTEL

human red blood cells = assay: Hemolysis of human red blood cells; format: cell-based
Protocol: as §1

| MIC [1] | MIC (C. albicans) | MIC (MRSA) | MIC (A. baumannii) | MIC (E. coli) | MIC (P. aeruginosa) | IC50 (Ovine COX-1) | melting point | SMILES | Selectivity index (SI) (human recombinant COX-2) | inhibition at 32 µg/mL [4] | Edema inhibition % ([5]; 1 h) | Edema thickness (mm) ± SEM ([5]; 1 h) | Edema inhibition % ([5]; 3 h) | Edema thickness (mm) ± SEM ([5]; 3 h) | Edema inhibition % ([5]; 6 h) | Edema thickness (mm) ± SEM ([5]; 6 h) | inhibition at 32 µg/mL [6] | inhibition at 32 µg/mL [7] | inhibition at 32 µg/mL [8] | inhibition at 32 µg/mL [9] | further results |
| --- | --- | --- | --- | --- | --- | --- | --- | --- | --- | --- | --- | --- | --- | --- | --- | --- | --- | --- | --- | --- | --- |
| 1.56 µg/mL (≈ 1.69 µM) | 1.56 µg/mL (≈ 1.69 µM) |  |  |  |  |  |  | C[C@@H]1[C@H](O)[C@@H](C)/C=C/C=C/C=C/C=C/C=C/C=C/C=C/[C@H](O[C@@H]2O[C@H](C)[C@@H](O)[C@H](N)[C@@H]2O)C[C@@H]2O[C@](O)(C[C@@H](O)C[C@@H](O)[C@H](O)CC[C@@H](O)C[C@@H](O)CC(=O)O[C@H]1C)C[C@H](O)[C@H]2C(=O)O [Amphotericin B, amphotericin B, reference compound] |  |  |  |  |  |  |  |  |  |  |  |  |  |
|  |  | 32 µg/mL (≈ 57.7 µM) | 32 µg/mL (≈ 57.7 µM) | 0.125 µg/mL (≈ 0.225 µM) | 32 µg/mL (≈ 57.7 µM) |  |  | CO/N=C(\C(=O)N[C@@H]1C(=O)N2C(C(=O)O)=C(CSc3nc(=O)c(=O)[nH]n3C)CS[C@H]12)c1csc(N)n1 [Ceftriaxone, ceftriaxone, reference compound] |  |  |  |  |  |  |  |  |  |  |  |  |  |
| > 32 µg/mL | > 32 µg/mL | 8 µg/mL (≈ 19.6 µM) | 16 µg/mL (≈ 39.3 µM) | ≤ 0.25 µg/mL | 4 µg/mL (≈ 9.82 µM) | 10.3 µM | 204 to 206 °C | CS(=O)(=O)c1ccc(-c2[nH]c3ccccc3c2C=NNc2ccc(F)cc2)cc1 [Compound 7a, 3-((2-(4-Fluorophenyl)hydrazono)methyl)-2-(4-(methylsulfonyl)phenyl)-1H-indole] | 93.81 | 6.28% | 74.1% | 0.679 ± 0.03 mm | 88.7% | 0.250 ± 0.021 mm | 92% | 0.151 ± 0.007 mm | 96.7% | 97.8% | 95.8% | 97.6% | CC50 [2]: > 32 µg/mL; inhibition at 32 µg/mL [3]: 85.8 to 97.8%; inhibition at 32 µg/mL [10]: 96.5%; HC10 (concentration at 10% hemolysis) (human red blood cells): > 32 µg/mL; MIC Kp (K. pneumoniae) (K. pneumoniae): 8 µg/mL (≈ 19.6 µM) |
|  |  |  |  |  |  | 11.4 µM | 203 to 204 °C | CS(=O)(=O)c1ccc(-c2[nH]c3ccccc3c2C=NNc2ccc(S(N)(=O)=O)cc2)cc1 [Compound 7c, 4-(2-((2-(4-(Methylsulfonyl)phenyl)-1H-indol-3-yl)methylene)hydrazinyl)benzene sulfonamide] | 103.7 and 103.72 | 4.13% | 62.7% | 0.978 ± 0.071 mm | 81.2% | 0.419 ± 0.028 mm | 82.5% | 0.331 ± 0.011 mm | 43.3% | 11.3% | 21.9% | 12.8% | inhibition at 32 µg/mL [10]: 3.17% |
| > 32 µg/mL | > 32 µg/mL | 1 µg/mL (≈ 2.4 µM) | 4 µg/mL (≈ 9.58 µM) | ≤ 0.25 µg/mL | 1 µg/mL (≈ 2.4 µM) | 7.9 µM | 166 to 168 °C | Cc1ccc(NN=Cc2c(-c3ccc(S(C)(=O)=O)cc3)[nH]c3ccc(C)cc23)cc1 [Compound 7g, 5-Methyl-2-(4-(methylsulfonyl)phenyl)-3-((2-(p-tolyl)hydrazono)methyl)-1H-indole] | 39.50 | 4.88% | 58.5% | 1.088 ± 0.090 mm | 72.3% | 0.618 ± 0.010 mm | 67.4% | 0.618 ± 0.045 mm | 85.8% | 94.6% | 96.2% | 87.5% | CC50 [2]: 4.2 µg/mL (≈ 10.1 µM); inhibition at 32 µg/mL [3]: 85.8 to 97.8%; inhibition at 32 µg/mL [10]: 86.4%; HC10 (concentration at 10% hemolysis) (human red blood cells): > 32 µg/mL; MIC Kp (K. pneumoniae) (K. pneumoniae): 1 µg/mL (≈ 2.4 µM) |
|  |  |  |  |  |  | 8.24 µM | 151 to 153 °C | Cc1ccc(NN=Cc2c(-c3ccc(S(C)(=O)=O)cc3)[nH]c3ccc(F)cc23)cc1 [Compound 7k, 5-Fluoro-2-(4-(methylsulfonyl)phenyl)-3-((2-(p-tolyl)hydrazono)methyl)-1H-indole] | 39.20 | 1.79% | 55.7% | 1.162 ± 0.088 mm | 69.1% | 0.689 ± 0.011 mm | 66.3% | 0.638 ± 0.051 mm | 31.4% | 2.23% | 28.2% | 8.77% |  |
|  |  |  |  |  |  | 9.41 µM | 202 to 204 °C | CS(=O)(=O)c1ccc(-c2[nH]c3ccc(F)cc3c2-c2nc3cc(Cl)ccc3[nH]2)cc1 [Compound 8b, 5-Chloro-2-(5-fluoro-2-(4-(methylsulfonyl)phenyl)-1H-indol-3-yl)-1H-benzo[d] imidazole] | 62.73 | 13.2% | 52.1% | 1.256 ± 0.074 mm | 68.1% | 0.712 ± 0.066 mm | 76.2% | 0.451 ± 0.013 mm | 22.4% | 14.5% | 11.3% | 6.56% |  |
|  |  |  |  |  |  | 9.42 µM | 226 to 228 °C | CS(=O)(=O)c1ccc(-c2[nH]c3ccc(F)cc3c2C=NO)cc1 [Compound 9b, 5-Fluoro-2-(4-(methylsulfonyl)phenyl)-1H-indole-3-carbaldehyde oxime] | 44.85 | 2.47% | 66.2% |  | 80.5% | 0.700 ± 0.024 mm | 73.4% | 0.726 ± 0.055 mm | 33.3% | 7.9% | 10.3% | 9.23% |  |
